Data on twelve molecules can be found in patent US10167261B2, “2-oxo-3,4-dihydroquinolin-6-yl sulphonamide CPDS and their use as plant growth regulators” (THE REGENTS OF THE UNIVERSITY OF CALIFORNIA, priority 2014, dated 2019).

For assay [1], the system named is soybean plants (variety S20-G7). The assay can be described thus: Water use (WU) of soybean plants after foliar spray. It counts as in vivo. Particulars: for change in vivo at 500 µM / change in vivo at 100 µM: Glycine max, vs negative control; for change in vivo at 500 µM / Total 0 to 2 DAA / change in vivo at 100 µM: foliar spray; for Total 0 to 2 DAA: cumulative WU vs negative control; for Total % WU 0 to 2 DAA: cumulative. How it is done: Chemicals were tested for their effect on reducing plant water use (WU) after being applied by foliar sprays onto soybean plants (variety S20-G7)—grown in controlled environment plant growth chambers. All chemicals were applied using an emulsifiable concentrate (EC) formulation that was diluted with water containing additional surfactant (EXTRAVON 1 g/20 L) to the indicated concentrations. Plant WU was assessed by multiple pot weighing processes before and after application of the chemicals at the indicated times (expressed in days after application (DAA)). The WU data before application was used to correct for differences in water use due to non-treatment effects (e.g. due to differences in plant size). The results are expressed compared to negative control treatment (water with EXTRAVON 1 g/20 L).
Application of the chemicals (0 DAA) takes place approximately between 8 to 9:30 a.m. […] The cumulative total WU (0-2 DAA) is calculated by summing the WU data mentioned above.

The target in the next assay is PYL2-HAB1 (Arabidopsis thaliana (Mouse-ear cress), UniProt O80992). Briefly: PP2C activity assay, PYL2-HAB1. Particulars: 100 nM PP2C, 200 nM PYR/PYL protein, 4-nitrophenyl phosphate substrate; read-out: IC50 of inhibition of PYL2-HAB1. It counts as biochemical. The text has this: (§1) The protein HAB1, a type 2 protein phosphatase (PP2C), is inhibited by PYR/PYL proteins in dependence of abscisic acid or other receptor agonists. The potency of a receptor agonists correlates with the level of inhibition of the PP2C, and therefore the IC50 (PYR1-HAB1) can be used to compare the relative activity of different chemical analogues. Since inhibition of PP2C correlates to inhibition of seed-germination and increase in plant water-use efficiency, it serves as a powerful tool to quantify biological potential of a chemical acting as an analogue of abscisic acid.
Chain of PYL2-HAB1 (O80992 whole entry, looked up): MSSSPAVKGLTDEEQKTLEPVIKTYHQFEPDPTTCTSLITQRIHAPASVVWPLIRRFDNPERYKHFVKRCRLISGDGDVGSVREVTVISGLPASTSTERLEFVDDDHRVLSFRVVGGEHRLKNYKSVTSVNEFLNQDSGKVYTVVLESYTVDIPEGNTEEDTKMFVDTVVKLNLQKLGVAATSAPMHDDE
Chain of PYL2-HAB1 (Q9CAJ0 whole entry partner, looked up): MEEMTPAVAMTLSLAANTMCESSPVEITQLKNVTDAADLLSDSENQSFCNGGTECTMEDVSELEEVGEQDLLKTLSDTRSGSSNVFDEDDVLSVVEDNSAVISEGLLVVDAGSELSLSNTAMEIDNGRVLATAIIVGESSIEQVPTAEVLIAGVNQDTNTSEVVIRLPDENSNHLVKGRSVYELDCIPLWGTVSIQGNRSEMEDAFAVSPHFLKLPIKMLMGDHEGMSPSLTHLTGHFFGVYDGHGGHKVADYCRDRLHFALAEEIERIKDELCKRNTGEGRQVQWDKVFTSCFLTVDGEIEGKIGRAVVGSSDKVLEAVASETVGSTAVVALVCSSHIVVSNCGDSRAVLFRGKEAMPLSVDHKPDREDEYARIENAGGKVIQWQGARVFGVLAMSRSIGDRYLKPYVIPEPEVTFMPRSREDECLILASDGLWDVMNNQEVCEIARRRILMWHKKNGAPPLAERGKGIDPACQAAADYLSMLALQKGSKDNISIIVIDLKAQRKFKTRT
(§2) HAB1 and PYL proteins were expressed and purified as described in Park et al. ((2009) Science 324(5930):1068-1071), with minor modifications. To obtain GST-HAB1, the HAB1 cDNA was cloned into pGex-2T. Expression was conducted in BL21[DE3]pLysS host cells. Transformed cells were pre-cultured overnight, transferred to LB medium and cultured at 30° C. to culture A600 of ˜0.5.
(§3) The culture was then cooled on ice and MnCl2 added to 4 mM and IPTG added to 0.3 mM. After 16 hours incubation at 15° C., cells were harvested and recombinant proteins were purified on glutathione agarose as described in Park et al. To obtain 6×His-PYL receptor fusion proteins, expression constructs previously described by Okamoto et al. 2013, (PNAS 110(29): 12132-12137) were used. ABA receptors were expressed and purified as described above.
(§4) For the values shown in Table B5, PP2C activity assays using recombinant receptors and PP2Cs were carried out as follows: purified proteins were pre-incubated in 160 μl assay buffer containing 100 mM Tris-HCl-pH7.9, 100 mM NaCl, 3 μg bovine serum albumin, 0.1% 2-mercaptoethanol, 1 mM MnCl2 with ABA or agonists (compounds of the present invention) for 30 minutes at room temperature. Reactions were started by adding 40 μL of a reaction solution containing 25 mM 4-nitrophenyl phosphate in assay buffer after which absorbance measurements were immediately collected using a 405 nm on Wallac plate reader. Reactions contained 100 nM PP2C and 200 nM PYR/PYL proteins. […] For inferring IC50 values, calculations from receptor/PP2C assays containing different concentrations (ranging from 1 μM to 4 nM) were. The obtained dose response data was fit to a log (inhibitor) versus response-(variable slope) model using non-linear regression to infer the IC50s, using Graph Pad Prism 6.0.

Another assay addresses PYR1-HAB1 (Arabidopsis thaliana (Mouse-ear cress), UniProt O49686). The assay can be described thus: PP2C activity assay, PYR1-HAB1. It counts as biochemical. Conditions: 100 nM PP2C, 200 nM PYR/PYL protein, 4-nitrophenyl phosphate substrate; read-out: IC50 of inhibition of PYR1-HAB1.
Source text: as §1, §2, §3, §4

For assay [2], the system named is corn plants (variety NK OCTET). Briefly: Water use (WU) of corn plants after foliar spray. It is filed as in vivo. Particulars: foliar spray at 500 μM, vs negative control.
The subject of assay [3] is corn plants (variety NK OCTET). Briefly: Water use (WU) of corn plants after foliar spray. It is filed as in vivo. Conditions: foliar spray at 500 μM, vs negative control; for Total % WU 0 to 2 DAA: cumulative. The method, then:
Compounds were tested for their effect on reducing plant water use as follows. The compounds were applied by foliar spray to 12 day old corn plants (variety NK OCTET) grown in controlled environment plant growth chambers. All compounds were applied using an emulsifiable concentrate (EC) formulation that was diluted to the desired concentrations with water containing 0.4% of the adjuvant rape seed methyl ester. Plant water use during the day was assessed by repeated weighing of the pots in which the plants were grown before and after application of the compounds at the indicated times (expressed in days after application (DAA)). The water use data before application was used to correct any differences in water use arising due to non-treatment effects (e.g. due to differences in plant size). The untransformed water use values were subjected to an analysis of covariance, fitting the effect of treatment and using the baseline water use 1 day before application as a covariate. Application of the chemicals (0 DAA) takes place approximately between 8 to 9:30 a.m. WU is measured within day time (chamber light is on 6:00 to 20:00) at these timepoints: 0 DAA AM (10:30-12:50) and 0 DAA PM (14:00-19:50), 1 DAA AM (7:30-12:50) and 1 DAA PM (14:00-19:50) and 2 DAA AM (7:30-12:50). The cumulative total WU (0-2 DAA) is calculated by summing the WU data mentioned above.

[4] abbreviates: repeated experiment (Table B2), rate not given.
[5] abbreviates: 0 h, application rate 100 μM, read-out: % WU 0 DAA AM.
[6] abbreviates: 0 h, application rate 100 μM, read-out: % WU 0 DAA PM.
Where [7] appears, read: 24 h, application rate 100 μM, read-out: % WU 1 DAA AM.
The mark [8] stands for this setting: 24 h, application rate 100 μM, read-out: % WU 1 DAA PM.
The mark [9] stands for this setting: 48 h, application rate 100 μM, read-out: % WU 2 DAA AM.

Read-outs that look alike come from different tables or passages of the source. Bounds are passed on as bounds.

The term IC50 denotes the point on the concentration scale where inhibition reaches its midpoint.

Chain of PYR1-HAB1 (O49686 whole entry, looked up): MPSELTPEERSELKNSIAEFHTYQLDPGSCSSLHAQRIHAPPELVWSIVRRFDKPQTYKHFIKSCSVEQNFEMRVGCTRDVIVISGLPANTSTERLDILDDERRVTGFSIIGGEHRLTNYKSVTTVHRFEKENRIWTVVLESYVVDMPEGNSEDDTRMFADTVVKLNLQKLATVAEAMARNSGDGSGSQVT
Chain of PYR1-HAB1 (Q9CAJ0 whole entry partner, looked up): as the sequence (Q9CAJ0 whole entry partner, looked up) above

On to `CCCN1C(=O)CCc2cc(NS(=O)(=O)Cc3ccc(C4CC4)cc3)ccc21` [drawing 27], for which the change in vivo at 500 µM in assay [1] (0 h, application rate 500 μM, read-out: % WU 0 DAA AM) is -8.8%; in assay [1] (0 h, application rate 500 μM, read-out: % WU 0 DAA PM), -10.7%; in assay [1] (24 h, application rate 500 μM, read-out: % WU 1 DAA AM), -9.4%; in assay [1] (24 h, application rate 500 μM, read-out: % WU 1 DAA PM), -6.4%; in assay [1] (48 h, application rate 500 μM, read-out: % WU 2 DAA AM), -6.1%. Moreover, in assay [1] (application rate 500 μM), the “Total 0 to 2 DAA” value is given as −8.9%.
With `CCCN1C(=O)CC(C)c2cc(NS(=O)(=O)Cc3ccc(C4CC4)cc3)ccc21` (stereo not shown) [Compound 1.179], the IC50 on PYL2-HAB1 came to 64 nM; at PYR1-HAB1, 82 nM.
`CCCN1C(=O)CCc2cc(NS(=O)(=O)Cc3ccc(C4CCC4)cc3)ccc21` [Compound 5.004, 1-(4-cyclobutylphenyl)-N-(2-oxo-1-propyl-3,4-dihydroquinolin-6-yl)methanesulfonamide]: the “% WU 2 DAA PM” value in assay [2] was −2.3%. Further, in assay [3], the “Total % WU 0 to 2 DAA” value was −4.9%, the “% WU 0 DAA AM” value is given as −8.9%, the “% WU 0 DAA PM” value is recorded as −8.8% and the “% WU 1 DAA AM” value is given as −5.6%. Also, in assay [3], the “% WU 1 DAA PM” value is reported as −5.9% and the “% WU 2 DAA AM” value is listed as −1.7%. Further, in assay [1] (setting [4]), the “% WU 2 DAA PM” value came to 3.9% and the “Total % WU 0 to 2 DAA” value was −3%.
Consider `CCCN1C(=O)CCc2cc(NS(=O)(=O)Cc3ccc(C4CC(=O)C4(C)C)cc3)ccc21` (stereo not shown) [Compound 8.004, 1-[4-(2,2-dimethyl-3-oxo-cyclobutyl)phenyl]-N-(2-oxo-1-propyl-3,4-dihydroquinolin-6-yl)methanesulfonamide], for which, in assay [1] (setting [4]), the “% WU 2 DAA PM” value was found to be 1% and the “Total % WU 0 to 2 DAA” value is reported as −0.7%.
For `CCN1C(=O)CC(C)c2cc(NS(=O)(=O)Cc3ccc(C4CC4)cc3)ccc21` (stereo not shown) [Compound 1.178, 1-(4-cyclopropylphenyl)-N-(1-ethyl-4-methyl-2-oxo-3,4-dihydroquinolin-6-yl)methanesulfonamide], the “% WU 2 DAA PM” value in assay [2] is −5.8%. Also, in assay [3], the “Total % WU 0 to 2 DAA” value is −9.7%, the “% WU 0 DAA AM” value is −18.5%, the “% WU 0 DAA PM” value is listed as −13% and the “% WU 1 DAA AM” value is −11.2%. Besides, in assay [3], the “% WU 1 DAA PM” value is given as −9.2% and the “% WU 2 DAA AM” value was −6.5%. For the same molecule, in assay [1] (setting [4]), the “% WU 2 DAA PM” value is listed as −36.5% and the “Total % WU 0 to 2 DAA” value is −45.4%.
For the molecule `CCN1C(=O)CC(C)c2cc(NS(=O)(=O)Cc3ccc(C4CC4)cc3)cc(F)c21` (stereo not shown) [Compound 1.220, 1-(4-cyclopropylphenyl)-N-(1-ethyl-8-fluoro-4-methyl-2-oxo-3,4-dihydroquinolin-6-yl)methanesulfonamide], the “% WU 2 DAA PM” value in assay [2] is recorded as −9%. In assay [3], the “Total % WU 0 to 2 DAA” value is given as −17.8%, the “% WU 0 DAA AM” value is reported as −32.6%, the “% WU 0 DAA PM” value is listed as −35.1% and the “% WU 1 DAA AM” value is on record as −18.2%. In assay [3], the “% WU 1 DAA PM” value is listed as −14.1% and the “% WU 2 DAA AM” value is −8.7%. Besides, at PYL2-HAB1, the IC50 turned out to be 16 nM. Moreover, the 50% inhibitory concentration (IC50) at PYR1-HAB1 is 71 nM. In addition, in assay [1] (setting [4]), the “% WU 2 DAA PM” value is −44.6% and the “Total % WU 0 to 2 DAA” value is listed as −50.5%.
Consider `CCCN1C(=O)CCc2cc(NS(=O)(=O)Cc3ccc(C4CC4)cc3)ccc21` [drawing 26], for which the change in vivo at 100 µM in assay [1] (setting [5]) is -0.8%; in assay [1] (setting [6]), -3.8%; in assay [1] (setting [7]), -3%; in assay [1] (setting [8]) it was -2.8%; in assay [1] (setting [9]), -5.2%. Besides, in assay [1] (application rate 100 μM), the “Total 0 to 2 DAA” value is reported as −3.8%.
Consider `CCCN1C(=O)CCc2cc(NS(=O)(=O)Cc3ccc(C4CC4)cc3)cc(F)c21` [Compound 1.214, 1-(4-cyclopropylphenyl)-N-(8-fluoro-2-oxo-1-propyl-3,4-dihydroquinolin-6-yl)methanesulfonamide], for which the results for the IC50 on PYL2-HAB1 and on PYR1-HAB1 were 130 nM and 28 nM, respectively.
Regarding `CCCN1C(=O)CCc2cc(NS(=O)(=O)Cc3ccc(C)cc3)ccc21` [drawing 25, reference compound], the change in vivo at 100 µM is -1.3% in assay [1] (setting [5]); -0.7% in assay [1] (setting [6]); -2.2% in assay [1] (setting [7]); -0.2% in assay [1] (setting [8]); -3.4% in assay [1] (setting [9]). For the same molecule, the “Total 0 to 2 DAA” value in assay [1] (application rate 100 μM) is given as −2.0%.
Turning to `CCCN1C(=O)CCc2cc(NS(=O)(=O)Cc3ccc(C4CC4)cc3)cc(Cl)c21` [Compound 1.025, N-(8-chloro-2-oxo-1-propyl-3,4-dihydroquinolin-6-yl)-1-(4-cyclopropylphenyl)methanesulfonamide], the IC50 on PYL2-HAB1 amounted to 114 nM; on PYR1-HAB1, 83 nM. Further, in assay [1] (setting [4]), the “% WU 2 DAA PM” value is listed as −13.6%. Also, the “Total % WU 0 to 2 DAA” value in assay [1] (setting [4]) was −22.1%.
In the case of `CCCN1C(=O)CCc2cc(NS(=O)(=O)Cc3ccc(C4CCCC4)cc3)ccc21` [Compound 9.004, 1-(4-cyclopentylphenyl)-N-(2-oxo-1-propyl-3,4-dihydroquinolin-6-yl)methanesulfonamide], the IC50 is above 1000 nM at PYL2-HAB1 and 97 nM at PYR1-HAB1. Also, in assay [1] (setting [4]), the “% WU 2 DAA PM” value turned out to be 0.5%. In assay [1] (setting [4]), the “Total % WU 0 to 2 DAA” value is −1.4%.
In the case of `CCCN1C(=O)CCc2cc(NS(=O)(=O)Cc3ccc(C)cc3)ccc21` [Quinabactin, quinabactin, reference compound], the IC50 at PYL2-HAB1 came out at 262 nM. Further, the IC50 at PYR1-HAB1 was 104 nM. In addition, in assay [1] (setting [4]), the “% WU 0 DAA AM” value is reported as −22%, the “% WU 0 DAA PM” value is reported as −23%, the “% WU 1 DAA AM” value is given as −17% and the “% WU 1 DAA PM” value is reported as −15%. In assay [1] (setting [4]), the “% WU 2 DAA AM” value was −12%, the “% WU 2 DAA PM” value is −11% and the “Total % WU 0 to 2 DAA” value is −16%.
